Patent publication US20260137696A1, “Compositions Comprising an Inhibitor of Galectin-3” (University of Liverpool, priority 2023, published 2026)

Assays:
[1] = system: Salmonella typhimurium strain TA100; assay: Ames test (genotoxicity); assay type: cell-based; details: TA100, up to 1 mM tested, with or without metabolic activation (S9)
Method: (§1) Mutagenic potential of the compound of Formula I was assessed by Ames test in two Salmonella typhimurium strains TA98 and TA100 without and with metabolic activation (S9).
(§2) Effect of the compound inhibitors on genotoxicity was determined using the Salmonella typhimurium strains of TA 98 and TA 100 in the presence and absence of metabolic activation (S9). Each test concentration included the vehicle and positive controls. Briefly, the compounds were serially diluted in 24-well plates with or without the presence metabolic activation system (S9) and was incubated for 90 min at 37° C. in 250 rpm in a orbital shaking incubator. TA98 and TA100 were then introduced to the wells for 90 min. 50 μL aliquots from each well was dispensed into 384 well plates and incubated for 48 hrs at 37° C. in an incubator before positive wells were scored.

[2] = system: Salmonella typhimurium strain TA98; assay: Ames test (genotoxicity); assay type: cell-based; details: TA98, up to 1 mM tested, with or without metabolic activation (S9)
Method: as §1, §2

SW620 cells = assay: Tumour growth in mice (subcutaneous graft); assay type: in vivo, Balb/c nude mice; details: 5 mg/kg subcutaneously, 3 times a week for 4 weeks
Method: (§3) The compound of Formula I effect on tumour growth was assessed in Balb/c nude mice. Luciferase-transfected human colon cancer SW620 cells were grafted subcutaneously to mice and the compound of Formula I (5 mg/kg) was administrated subcutaneously, 3 times a week for 4 weeks. Tumour growths were monitored by IVIS imaging (FIG. 11A) and also measured by clipers.
as §3, with “imaging” for “imaging (FIG. 11A)”
Female Balb/c nude mice aged 6-7 weeks were purchased from Charles River Laboratories (Margate, UK) and maintained in specific pathogen-free conditions with a 12:12 hour light:dark cycle. All animal studies were conducted with UK Home Office and local ethics committee approval.
Sixteen 6˜7 weeks old mice were randomly divided into two equal A and B groups (8 mice/group). The animals were injected s.c. with 2×10^6 ZsGreen- and luciferase-expressing SW620Gal3+ cells. […] Tumour size were measured with callipers every two days. […]

C[C@H]1COc2c(N3CCN(C)CC3)c(F)cc3c(=O)c(C(=O)NNc4ccc(N)cc4)cn1c23 [Formula I]
mutagenic activity [1]: no mutagenic activity
mutagenic activity [2]: no mutagenic activity
inhibition of tumour growth (SW620 cells): 51%
